{
  "source": "ChEMBL document CHEMBL5634082",
  "about": "“Recent advances in the development of inhibitors targeting KRAS-G12C and its related pathways” (Eur J Med Chem, 2023)",
  "key": {"NCI-H358 [1]": {"tested_on": "NCI-H358", "assay": "Antitumor activity against human NCI-H358 cells harboring KRAS G12C mutant xenografted in mouse model assessed as tumor growth inhibition at 10 mg/kg, po relative to control", "type": "functional", "set-up": "scale not given: the % may be the effect or the level left"}, "NCI-H358 [2]": {"tested_on": "NCI-H358", "assay": "Antitumor activity against human NCI-H358 cells harboring KRAS G12C mutant xenografted in mouse model assessed as tumor growth inhibition at 30 mg/kg, po relative to control", "type": "functional", "set-up": "scale not given: the % may be the effect or the level left"}, "NCI-H358 [3]": {"tested_on": "NCI-H358", "assay": "Antitumor activity against human NCI-H358 cells harboring KRAS G12C mutant xenografted in mouse model assessed as tumor growth inhibition at 100 mg/kg, po relative to control", "type": "functional", "set-up": "scale not given: the % may be the effect or the level left"}, "[4]": {"tested_on": "von Hippel-Lindau disease tumor suppressor/GTPase KRas (Homo sapiens), P01116+P40337 [G12C]", "assay": "PROTAC activity at VHL/KRAS G12C mutant in human NCI-H2030 cells assessed as induction of protein degradation by measuring maximal efficacy at […] incubated for 24 hrs by Immunoblotting analysis relative to control", "type": "cell-based", "conditions": "dose 2.5 µM"}, "[5]": {"assay": "Inhibition of ERK phosphorylation in human NCI-H358 cells harboring KRAS G12C mutant incubated for 6 hrs by Western blot analysis", "type": "cell-based", "conditions": "NCI-H358, 6 h"}, "GTPase KRas [6]": {"target": "GTPase KRas (Homo sapiens, UniProt P01116, G12V)", "assay": "Binding affinity to Cys12 residue of GDP bound human KRAS […] mutant expressed in Escherichia coli BL21 Rosetta cells assessed as dissociation constant by HSQC NMR spectral analysis"}, "[7]": {"tested_on": "GTPase KRas (Homo sapiens), P01116 [G12C]", "assay": "Inhibition of KRAS G12C mutant (unknown origin) at 10 uM relative to control"}, "GTPase KRas [8]": {"target": "GTPase KRas (Homo sapiens, UniProt P01116, G12C)", "assay": "Inhibition of KRAS G12C mutant (unknown origin)"}, "[9]": {"target": "von Hippel-Lindau disease tumor suppressor/GTPase KRas (Homo sapiens, UniProt P01116+P40337, G12C)", "assay": "Protac activity at VHL/KRAS G12C mutant in human NCI-H2030 cells assessed as degradation of KRAS G12C mutant incubated for 24 hrs by immunoblot assay", "type": "cell-based"}, "[10]": {"tested_on": "von Hippel-Lindau disease tumor suppressor/GTPase KRas (Homo sapiens), P01116+P40337 [G12C]", "assay": "Protac activity at VHL/KRAS G12C mutant in human SW1573 cells assessed as induction of protein degradation by measuring maximal efficacy at […] incubated for 72 hrs by Western blot analysis relative to control", "type": "cell-based", "conditions": "dose 2.5 µM"}, "NCI-H441": {"tested_on": "NCI-H441", "assay": "Antiproliferative activity against human NCI-H441 cells harboring KRAS G12V mutant assessed as reduction in cell viability incubated for 72 hrs by MTT assay", "type": "functional, cell-based", "conditions": "NCI-H441, 72 h"}, "[11]": {"assay": "Clearance in iv dosed CD-1 mouse", "type": "ADME, organism-based", "conditions": "in vivo"}, "[12]": {"assay": "Volume of distribution at steady state in iv dosed CD-1 mouse", "type": "ADME, organism-based", "conditions": "in vivo, read-out: Vdss"}, "[13]": {"assay": "Volume of distribution at steady state in iv dosed Sprague-Dawley rat by LC-MS/MS analysis", "type": "ADME, organism-based", "conditions": "in vivo, read-out: Vdss"}, "[14]": {"assay": "Volume of distribution at steady state in iv dosed Beagle dog", "type": "ADME, organism-based, Canis lupus familiaris", "conditions": "in vivo, read-out: Vdss"}, "[15]": {"assay": "Oral bioavailability in CD-1 mouse", "type": "ADME, organism-based", "conditions": "in vivo"}, "[16]": {"assay": "Oral bioavailability in Sprague-Dawley rat", "type": "ADME, organism-based", "conditions": "in vivo"}, "[17]": {"assay": "Oral bioavailability in Beagle dog", "type": "ADME, organism-based, Canis lupus familiaris", "conditions": "in vivo"}, "[18]": {"assay": "Inhibition of ERK phosphorylation in human NCI-H358 cells incubated for 3 hrs", "type": "cell-based", "conditions": "NCI-H358, 3 h"}, "cells": {"assay": "cells", "conditions": "Homo sapiens, MKN-1"}},
  "data": [
    {"smiles": "C=CC(=O)N1CCN(c2nc(OC[C@@H]3CCCN3C)nc3c2CCN(c2cccc4cccc(Cl)c24)C3)C[C@@H]1CC#N", "values": [
      {"measurement": "Activity", "setting": "NCI-H358 [1]", "result": 70, "unit": "%"},
      {"measurement": "Activity", "setting": "NCI-H358 [2]", "result": 89, "unit": "%"},
      {"measurement": "Activity", "setting": "NCI-H358 [3]", "result": 90, "unit": "%"}
    ]},
    {"smiles": "C=C(F)C(=O)N1CCN(c2nc(OC[C@@H]3CCCN3CCC(=O)NCCOCCOCCC(=O)N[C@H](C(=O)N3C[C@H](O)C[C@H]3C(=O)NCc3ccc(-c4scnc4C)cc3)C(C)(C)C)nc3c2CCN(c2cccc4cccc(Cl)c24)C3)C[C@@H]1CC#N", "values": [
      {"measurement": "Emax", "setting": "[4]", "result": 30, "unit": "%"}
    ]},
    {"smiles": "C=CC(=O)N1CC2(CC(n3nc(-c4ccc5c(cnn5C)c4)c(-c4c(Cl)c(C)cc5[nH]ncc45)c3C)C2)C1", "note": "[OPNURASIB]", "values": [
      {"measurement": "IC50", "setting": "[5]", "result": 20, "unit": "nM"}
    ]},
    {"smiles": "C[C@]1(c2nc(-c3cccc(N)c3)no2)CCCc2sc(N)c(C#N)c21", "values": [
      {"measurement": "Kd", "setting": "GTPase KRas [6]", "result": "< 10000", "unit": "nM"}
    ]},
    {"smiles": "C=CC(=O)N1CCN(c2nc(OCC34CCCN3CCC4)nc3c2cc(-c2cccc4cccc(C)c24)n3C)C[C@@H]1CC#N", "values": [
      {"measurement": "inhibition", "setting": "[7]", "result": 91.3, "unit": "%"},
      {"measurement": "IC50", "setting": "GTPase KRas [8]", "result": 1540, "unit": "nM"}
    ]},
    {"smiles": "C[C@]1(c2nc(-c3ccc(N)cc3)no2)CCCc2sc(N)c(C#N)c21", "values": [
      {"measurement": "Kd", "setting": "GTPase KRas [6]", "result": "< 10000", "unit": "nM"}
    ]},
    {"smiles": "C=C(F)C(=O)N1CCN(c2nc(OC[C@@H]3CCCN3CCC(=O)NCCC(=O)N[C@H](C(=O)N3C[C@H](O)C[C@H]3C(=O)NCc3ccc(-c4scnc4C)cc3)C(C)(C)C)nc3c2CCN(c2cccc4cccc(Cl)c24)C3)C[C@@H]1CC#N", "values": [
      {"measurement": "DC50", "setting": "[9]", "result": 6400, "unit": "nM"},
      {"measurement": "Emax", "setting": "[4]", "result": 85, "unit": "%"}
    ]},
    {"smiles": "C=C(F)C(=O)N1CCN(c2nc(OC[C@@H]3CCCN3CCOCCOCCC(=O)N[C@H](C(=O)N3C[C@H](O)C[C@H]3C(=O)NCc3ccc(-c4scnc4C)cc3)C(C)(C)C)nc3c2CCN(c2cccc4cccc(Cl)c24)C3)C[C@@H]1CC#N", "values": [
      {"measurement": "DC50", "setting": "[9]", "result": "> 10000", "unit": "nM"},
      {"measurement": "Emax", "setting": "[10]", "result": 50, "unit": "%"}
    ]},
    {"smiles": "C=C(F)C(=O)N1CCN(c2nc(OC[C@@H]3CCCN3CCCCOCCC(=O)N[C@H](C(=O)N3C[C@H](O)C[C@H]3C(=O)NCc3ccc(-c4scnc4C)cc3)C(C)(C)C)nc3c2CCN(c2cccc4cccc(Cl)c24)C3)C[C@@H]1CC#N", "values": [
      {"measurement": "DC50", "setting": "[9]", "result": 880, "unit": "nM"},
      {"measurement": "Emax", "setting": "[10]", "result": 90, "unit": "%"}
    ]},
    {"smiles": "N#Cc1c(N)sc2c1CCCC2", "values": [
      {"measurement": "IC50", "setting": "NCI-H441", "result": 16000, "unit": "nM"}
    ]},
    {"smiles": "C=CC(=O)N1CC2(CC(n3nc(-c4ccccc4)c(-c4c(Cl)c(C)cc5[nH]ncc45)c3C)C2)C1", "values": [
      {"measurement": "IC50", "setting": "[5]", "result": 40, "unit": "nM"}
    ]},
    {"smiles": "C=C(F)C(=O)N1CCN(c2nc(OC[C@@H]3CCCN3CCC(=O)NCCOCCC(=O)N[C@H](C(=O)N3C[C@H](O)C[C@H]3C(=O)NCc3ccc(-c4scnc4C)cc3)C(C)(C)C)nc3c2CCN(c2cccc4cccc(Cl)c24)C3)C[C@@H]1CC#N", "values": [
      {"measurement": "Emax", "setting": "[4]", "result": 35, "unit": "%"}
    ]},
    {"smiles": "C=CC(=O)N1CCN(c2nc(OC[C@@]34CCCN3C[C@H](F)C4)nc3c2cc(-c2cccc4cccc(C)c24)n3C)C[C@@H]1CC#N", "values": [
      {"measurement": "inhibition", "setting": "[7]", "result": 98.6, "unit": "%"},
      {"measurement": "IC50", "setting": "GTPase KRas [8]", "result": 340, "unit": "nM"}
    ]},
    {"smiles": "Cc1c(C#N)cccc1[C@@H](C)Nc1nnc(C)c2cnc(N3CCOCC3)cc12", "note": "[MRTX-0902]", "values": [
      {"measurement": "clearance", "setting": "[11]", "result": 4.4, "unit": "mL/min/kg"},
      {"measurement": "Vd", "setting": "[12]", "result": 0.28, "unit": "L/kg"},
      {"measurement": "Vd", "setting": "[13]", "result": 0.28, "unit": "L/kg"},
      {"measurement": "Vd", "setting": "[14]", "result": 0.28, "unit": "L/kg"},
      {"measurement": "bioavailability", "setting": "[15]", "result": 38, "unit": "%"},
      {"measurement": "bioavailability", "setting": "[16]", "result": 38, "unit": "%"},
      {"measurement": "bioavailability", "setting": "[17]", "result": 38, "unit": "%"}
    ]},
    {"smiles": "C=CC(=O)N1CCN(c2nc(OC[C@@H]3CCCN3C)nc3c2CCN(c2cccc4ccccc24)C3)CC1", "values": [
      {"measurement": "IC50", "setting": "[18]", "result": 4400, "unit": "nM"}
    ]},
    {"smiles": "C=CC(=O)N1CC2(CC(n3nc(C(C)C)c(-c4c(C)ccc5[nH]ncc45)c3C)C2)C1", "values": [
      {"measurement": "IC50", "setting": "[5]", "result": 3900, "unit": "nM"}
    ]},
    {"smiles": "C=C(F)C(=O)N1CCN(c2nc(OC[C@@H]3CCCN3CCCOCCC(=O)N[C@H](C(=O)N3C[C@H](O)C[C@H]3C(=O)NCc3ccc(-c4scnc4C)cc3)C(C)(C)C)nc3c2CCN(c2cccc4cccc(Cl)c24)C3)C[C@@H]1CC#N", "values": [
      {"measurement": "DC50", "setting": "[9]", "result": 590, "unit": "nM"},
      {"measurement": "Emax", "setting": "[10]", "result": 90, "unit": "%"},
      {"measurement": "Emax", "setting": "[4]", "result": 75, "unit": "%"}
    ]},
    {"smiles": "Cc1c([C@@H](C)Nc2nnc(C)c3ccc(N4CCNCC4)cc23)cccc1C(F)(F)F", "values": [
      {"measurement": "IC50", "setting": "cells", "result": 74, "unit": "nM"}
    ]},
    {"smiles": "C=CC(=O)N1CCN(c2nc(OC[C@@H]3CCCN3C)nc3c2cc(-c2cccc4ccccc24)n3C)C[C@@H]1CC#N", "values": [
      {"measurement": "inhibition", "setting": "[7]", "result": 17, "unit": "%"}
    ]},
    {"smiles": "CC1(C)CCCc2sc(N)c(C#N)c21", "values": [
      {"measurement": "IC50", "setting": "NCI-H441", "result": "< 10000", "unit": "nM"}
    ]},
    {"smiles": "C=CC(=O)N1CC2(CC(n3nc(-c4ccc5[nH]ncc5c4)c(-c4c(Cl)c(C)cc5[nH]ncc45)c3C)C2)C1", "values": [
      {"measurement": "IC50", "setting": "[5]", "result": 20, "unit": "nM"}
    ]},
    {"smiles": "C=CC(=O)N1CCN(c2nc(OC[C@@H]3CCCN3C)nc3c2CCN(c2cccc4ccccc24)C3)C[C@@H]1CC#N", "values": [
      {"measurement": "IC50", "setting": "[18]", "result": 10, "unit": "nM"}
    ]},
    {"smiles": "C=CC(=O)N1CCN(c2nc(OC[C@@H]3CCCN3C)nc3c2cc(-c2cccc4cccc(C)c24)n3C)C[C@@H]1CC#N", "values": [
      {"measurement": "inhibition", "setting": "[7]", "result": 39.8, "unit": "%"}
    ]},
    {"smiles": "Cc1c([C@@H](C)Nc2nnc(C)c3cnc(N4CCOCC4)cc23)cccc1C(F)(F)F", "values": [
      {"measurement": "IC50", "setting": "cells", "result": 26, "unit": "nM"}
    ]}
  ]
}
